The values below come from patent US10717716B2, “1,3,4-oxadiazole derivative compounds as histone deacetylase 6 inhibitor, and the pharmaceutical composition comprising the same” (Chong Kun Dang Pharmaceutical Corp., priority 2015, dated 2020).

This test has as its target T1, human recombinant HDAC6 (Homo sapiens, UniProt Q9UBN7).
T1 construct: purchased Calbiochem 382180
T1 sequence (Q9UBN7 1-1215): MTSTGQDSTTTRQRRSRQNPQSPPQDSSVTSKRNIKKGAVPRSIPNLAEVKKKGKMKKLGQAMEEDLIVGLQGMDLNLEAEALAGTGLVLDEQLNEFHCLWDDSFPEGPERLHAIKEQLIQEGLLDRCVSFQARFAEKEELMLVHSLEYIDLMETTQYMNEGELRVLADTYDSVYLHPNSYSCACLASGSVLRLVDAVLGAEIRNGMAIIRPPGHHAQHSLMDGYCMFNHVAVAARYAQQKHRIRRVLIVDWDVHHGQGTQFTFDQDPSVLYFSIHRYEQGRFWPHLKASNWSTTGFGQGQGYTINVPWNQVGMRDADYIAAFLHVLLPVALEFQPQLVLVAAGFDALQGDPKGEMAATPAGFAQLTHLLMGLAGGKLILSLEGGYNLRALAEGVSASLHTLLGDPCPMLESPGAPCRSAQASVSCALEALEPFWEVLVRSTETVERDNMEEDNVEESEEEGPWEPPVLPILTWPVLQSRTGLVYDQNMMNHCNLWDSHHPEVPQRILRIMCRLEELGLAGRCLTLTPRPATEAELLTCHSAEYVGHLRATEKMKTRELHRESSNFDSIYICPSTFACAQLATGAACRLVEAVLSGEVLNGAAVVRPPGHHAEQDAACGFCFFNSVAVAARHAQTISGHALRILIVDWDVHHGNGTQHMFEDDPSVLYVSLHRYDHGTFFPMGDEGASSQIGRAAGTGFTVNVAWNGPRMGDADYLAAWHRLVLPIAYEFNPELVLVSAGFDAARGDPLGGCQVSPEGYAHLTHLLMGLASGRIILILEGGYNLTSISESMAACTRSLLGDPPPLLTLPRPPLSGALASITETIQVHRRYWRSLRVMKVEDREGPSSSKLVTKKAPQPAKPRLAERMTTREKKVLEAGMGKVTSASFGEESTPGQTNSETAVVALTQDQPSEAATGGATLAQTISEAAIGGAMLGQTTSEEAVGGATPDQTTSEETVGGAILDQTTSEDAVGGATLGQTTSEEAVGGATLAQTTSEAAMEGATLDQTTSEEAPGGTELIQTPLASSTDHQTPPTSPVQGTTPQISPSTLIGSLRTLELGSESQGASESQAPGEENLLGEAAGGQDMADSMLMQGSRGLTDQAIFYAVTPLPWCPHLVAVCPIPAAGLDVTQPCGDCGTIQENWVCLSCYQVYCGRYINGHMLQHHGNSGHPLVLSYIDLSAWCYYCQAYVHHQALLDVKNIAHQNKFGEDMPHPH
Kind of test: HDAC6 enzyme activity inhibition assay (HDAC Fluorimetric Drug Discovery Kit). The class given is biochemical. As to conditions: for HDAC6 selectivity (fold): HDAC6 over HDAC1; for IC50: human recombinant HDAC6, same protocol as HDAC1, read-out: HDAC6. The essentials: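 Fluorimetric deacetylase assay: 5-fold serial compound dilutions, 0.3 μg recombinant human enzyme (HDAC1 or HDAC6, same protocol), 10 μM Fluor de Lys-SIRT1 substrate, 60 min at 30 °C. Signal developed 30 min, measured at 360/460 nm; IC50 values derived.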

Consider `CCN1CC2(CCN(C(=O)N(Cc3ccc(-c4nnc(C(F)F)o4)cc3F)c3ccc4cnn(C)c4c3)CC2)C1` [Compound 21765, N-(4-(5-(Difluoromethyl)-1,3,4-oxadiazol-2-yl)-2-fluorobenzyl)-2-ethyl-N-(1-methyl-1H-indazol-6-yl)-2,7-diazaspiro[3.5]nonane-7-carboxamide], for which the “HDAC6 selectivity (fold)” value is 88 fold and the IC50 was determined as 114 nM.
Take `O=C(N1CCOCC1)N(Cc1ccc(-c2nnc(C(F)F)o2)nc1)c1ccc(F)c(Cl)c1` [Compound 21766, N-(3-Chloro-4-fluorophenyl)-N-((6-(5-(difluoromethyl)-1,3,4-oxadiazol-2-yl)pyridin-3-yl)methyl)morpholine-4-carboxamide]: the “HDAC6 selectivity (fold)” value is 88 fold and the IC50 turned out to be 114 nM.
As for `O=C(N1CCS(=O)(=O)CC1)N(Cc1ccc(-c2nnc(C(F)F)o2)nc1)c1ccc(F)c(Cl)c1` [Compound 21767, N-(3-Chloro-4-fluorophenyl)-N-((6-(5-(difluoromethyl)-1,3,4-oxadiazol-2-yl)pyridin-3-yl)methyl)thiomorpholine-4-carboxamide 1,1-dioxide], the “HDAC6 selectivity (fold)” value is 9 fold and the IC50 was 1140 nM.
The corresponding values for `O=C(N1CCS(=O)(=O)CC1)N(Cc1ccc(-c2nnc(C(F)F)o2)cc1F)c1ccc2c(c1)CCC2` [Compound 21797, N-(4-(5-(Difluoromethyl)-1,3,4-oxadiazol-2-yl)-2-fluorobenzyl)-N-(2,3-dihydro-1H-inden-5-yl)thiomorpholine-4-carboxamide 1,1-dioxide] are 37 fold and 268 nM.
Consider `CC1(C)Cc2cccc(N(Cc3ccc(-c4nnc(C(F)F)o4)cc3F)C(=O)N3CCS(=O)(=O)CC3)c2O1` [Compound 21798, N-(4-(5-(Difluoromethyl)-1,3,4-oxadiazol-2-yl)-2-fluorobenzyl)-N-(2,2-dimethyl-2,3-dihydrobenzofuran-7-yl)thiomorpholine-4-carboxamide 1,1-dioxide], for which the “HDAC6 selectivity (fold)” value is recorded as 8 fold and the IC50 was found to be 1320 nM.
With `Cn1ccc2cc(N(Cc3ccc(-c4nnc(C(F)F)o4)cc3F)C(=O)N3CCS(=O)(=O)CC3)ccc21` [Compound 21799, N-(4-(5-(difluoromethyl)-1,3,4-oxadiazol-2-yl)-2-fluorobenzyl)-N-(1-methyl-1H-indol-5-yl)thiomorpholine-4-carboxamide 1,1-dioxide], the “HDAC6 selectivity (fold)” value was determined as 33 fold and the IC50 stood at 305 nM.
For `O=C(N1CCS(=O)(=O)CC1)N(Cc1ccc(-c2nnc(C(F)F)o2)cc1F)c1ccc(F)cc1` [Compound 21806, N-(4-(5-(difluoromethyl)-1,3,4-oxadiazol-2-yl)-2-fluorobenzyl)-N-(4-fluorophenyl)thiomorpholine-4-carboxamide 1,1-dioxide], in that order: 261 fold and 38 nM.
For the compound `O=C(N1CCS(=O)(=O)CC1)N(Cc1ccc(-c2nnc(C(F)F)o2)cc1F)c1cccc(F)c1` [Compound 21807, N-(4-(5-(difluoromethyl)-1,3,4-oxadiazol-2-yl)-2-fluorobenzyl)-N-(3-fluorophenyl)thiomorpholine-4-carboxamide 1,1-dioxide], the “HDAC6 selectivity (fold)” value is listed as 256 fold and the IC50 is 39 nM.
Regarding `O=C(N1CCS(=O)(=O)CC1)N(Cc1ccc(-c2nnc(C(F)F)o2)cc1F)c1ccc(Cl)cc1` [Compound 21809, N-(4-chlorophenyl)-N-(4-(5-(difluoromethyl)-1,3,4-oxadiazol-2-yl)-2-fluorobenzyl)thiomorpholine-4-carboxamide 1,1-dioxide], the “HDAC6 selectivity (fold)” value amounted to 174 fold and the IC50 stood at 57 nM.
For `CCn1ncc2ccc(N(Cc3ccc(-c4nnc(C(F)F)o4)cc3F)C(=O)N3CCS(=O)(=O)CC3)cc21` [Compound 21811, N-(4-(5-(Difluoromethyl)-1,3,4-oxadiazol-2-yl)-2-fluorobenzyl)-N-(1-ethyl-1H-indazol-6-yl)thiomorpholine-4-carboxamide 1,1-dioxide], the “HDAC6 selectivity (fold)” value worked out at 144 fold and the IC50 was determined as 70 nM.
Regarding `CC(C)n1ncc2ccc(N(Cc3ccc(-c4nnc(C(F)F)o4)cc3F)C(=O)N3CCS(=O)(=O)CC3)cc21` [Compound 21812, N-(4-(5-(Difluoromethyl)-1,3,4-oxadiazol-2-yl)-2-fluorobenzyl)-N-(1-isopropyl-1H-indazol-6-yl)thiomorpholine-4-carboxamide 1,1-dioxide], the “HDAC6 selectivity (fold)” value was 94 fold and the IC50 was 107 nM.
Turning to `CC(C)c1nc2ccc(N(Cc3ccc(-c4nnc(C(F)F)o4)cc3F)C(=O)N3CCS(=O)(=O)CC3)cc2s1` [Compound 21813, N-(4-(5-(Difluoromethyl)-1,3,4-oxadiazol-2-yl)-2-fluorobenzyl)-N-(2-isopropylbenzo[d]thiazol-6-yl)thiomorpholine-4-carboxamide 1,1-dioxide], the “HDAC6 selectivity (fold)” value turned out to be 30 fold and the IC50 worked out at 330 nM.
The corresponding values for `O=C(N1CCOCC1)N(Cc1ccc(-c2nnc(C(F)F)o2)cc1F)c1ccc(F)cc1` [Compound 21841, N-(4-(5-(difluoromethyl)-1,3,4-oxadiazol-2-yl)-2-fluorobenzyl)-N-(4-fluorophenyl)morpholine-4-carboxamide] are 382 fold and 26 nM.
`O=C(N1CCOCC1)N(Cc1ccc(-c2nnc(C(F)F)o2)cn1)c1cccc(F)c1` [Compound 21843, N-((5-(5-(difluoromethyl)-1,3,4-oxadiazol-2-yl)pyridin-2-yl)methyl)-N-(3-fluorophenyl) morpholine-4-carboxamide]: the “HDAC6 selectivity (fold)” value is 461 fold and the IC50 was 22 nM.
For `O=C(N1CCOCC1)N(Cc1ccc(-c2nnc(C(F)F)o2)cc1F)c1ccc(Cl)cc1` [Compound 21849, N-(4-chlorophenyl)-N-(4-(5-(difluoromethyl)-1,3,4-oxadiazol-2-yl)-2-fluorobenzyl)morpholine-4-carboxamide], in that order: 95 fold and 106 nM.
With `O=C(N1CCOCC1)N(Cc1ccc(-c2nnc(C(F)F)o2)cn1)c1cccc(Cl)c1` [Compound 21851, N-(3-chlorophenyl)-N-((5-(5-(difluoromethyl)-1,3,4-oxadiazol-2-yl)pyridin-2-yl)methyl) morpholine-4-carboxamide], the “HDAC6 selectivity (fold)” value came to 407 fold and the IC50 stood at 25 nM.
For `Cc1ccc(N(Cc2ccc(-c3nnc(C(F)F)o3)cn2)C(=O)N2CCOCC2)c(F)c1` [Compound 21855, N-((5-(5-(difluoromethyl)-1,3,4-oxadiazol-2-yl)pyridin-2-yl)methyl)-N-(2-fluoro-4-methylphenyl)morpholine-4-carboxamide], in that order: 248 fold and 40 nM.
The corresponding values for `Cc1ccc(N(Cc2ccc(-c3nnc(C(F)F)o3)cc2F)C(=O)N2CCOCC2)c(F)c1` [Compound 21856, N-(4-(5-(difluoromethyl)-1,3,4-oxadiazol-2-yl)-2-fluorobenzyl)-N-(2-fluoro-4-methylphenyl)morpholine-4-carboxamide] are 105 fold and 95 nM.
Turning to `CCN1CCN(C(=O)N(Cc2ccc(-c3nnc(C(F)F)o3)cc2F)c2ccc(Cl)cc2)CC1` [Compound 21881, N-(4-Chlorophenyl)-N-(4-(5-(difluoromethyl)-1,3,4-oxadiazol-2-yl)-2-fluorobenzyl)-4-ethylpiperazine-1-carboxamide], the “HDAC6 selectivity (fold)” value was found to be 204 fold and the IC50 was found to be 49 nM.
Take `CCN1CCN(C(=O)N(Cc2ccc(-c3nnc(C(F)F)o3)cn2)c2ccc(Cl)cc2)CC1` [Compound 21882, N-(4-Chlorophenyl)-N-((5-(5-(difluoromethyl)-1,3,4-oxadiazol-2-yl)pyridin-2-yl)methyl)-4-ethylpiperazine-1-carboxamide]: the “HDAC6 selectivity (fold)” value came to 251 fold and the IC50 worked out at 40 nM.
